One assay deals with HeLa cells. In words: γ-H2AX immunofluorescence staining (DNA damage). Type of assay: cell-based. To be noted: 10–25–50 µM, 24 h. As to the method: HeLa cells (1 × 10^4/^mL) were seeded in 12-well cell culture plates, and after 24 h incubation, they were treated with the compound E at doses of 10–25–50 µM and incubated for 24 h. The cells were washed with PBS and fixed with 100% methanol at −20 °C overnight, which was followed by PBS washing three times for 10 min. The cells were treated with % 0.2 Triton X-100 on a shaker at room temperature for 5 min. It was washed with PBS, and 1% BSA-containing PBS was added and incubated with primary mouse monoclonal anti-γ-H2AX antibody (Cell Signalling Technology, MA, USA) at 37 °C for 1 h. The cells were washed with PBS three times for 5 min. Secondary goat anti-mouse Alexa-488-conjugated IgG (Invitrogen, CA, USA) was administrated and incubated at 37 °C for 20 min, which was followed by PBS washing three times for 4–5 min. One millilitre of 70% EtOH was added, and at +4 °C it was incubated for 5 min. One millilitre of 100% EtOH was added and, on a shaker, incubated at room temperature for 1–2 min. The nucleus was stained with DAPI. The images were recorded by Olympus Inverted fluorescence microscope (Olympus CKX 51, DP73, USA).

The next assay relates to PNT1-A. In words: WST-1 cytotoxicity assay, PNT1-A. In kind it is cell-based. To be noted: Homo sapiens, PNT1A. As to the method:
We used cancer and normal cell lines purchased from ATCC (American Type Culture Collection) and ECACC (European Collection of Authenticated Cell Cultures) and stored in liquid nitrogen. HT-29 (ATCC: HTB-38, colon adenoma cancer), HeLa (ATCC: CCL-2, cervix adenoma cancer cell), MDA-MB-231 (ATCC: HTB-26, breast adenoma cancer cell), and HEK-293 (ATCC: CRL-1573, embryonic kidney epithelial cell) cell lines were incubated in DMEM-F12 (Sigma-Aldrich, Germany), including 10% Fetal Bovine Serum (FBS), 100 μg/mL streptomycin/100 IU/mL penicillin, at 37 °C in an incubator containing 5% CO2, 95% air in a humid atmosphere. PNT-1A (ECACC: 95012614, normal prostate cells) cell line was incubated in RPMI-1640 medium, including %10 FBS, 100 μg/mL streptomycin/100 IU/mL penicillin, at 37 °C in an incubator containing 5% CO2, 95% air in a humid atmosphere.
The cytotoxic effects of compound E were evaluated with WST kit (Roche, Basel, Switzerland) in accordance with manufacturer protocols. The cells were planted in 96 well plates (10^4 cells per well). After 24 h of incubation, compound E at doses of 0, 2.5, 5, 10, 25, 50, 100, and 200 μM was administrated on the cell lines for 24, 48, and 72 h, and 5-FU on the control cell line with the same doses. WST-1 reactive of 10 µL was added in all wells. Following 4 h incubation, the measurements were carried out in a plate reader (Spectramax M5, BioTek, VT, USA) at wavelengths of 450 and 630 nm. Consequently, graphs were created, and the IC50 values of compound E and 5-fluorouracil were calculated. Selectivity index (SI) can be defined as the ratio of the toxic concentration of a sample against its effective compound concentration.

Consider `NS(=O)(=O)c1ccc(CCNCc2cc(Br)ccc2O)cc1` [Compound E, 4-(2-((5-bromo-2-hydroxybenzyl)amino)ethyl) benzenesulphonamide], for which, in the assay on HeLa cells, the “DNA damage (γ-H2AX level)” value is reported as “induced DNA damage in a dose-dependent manner”. In addition, the IC50 in the assay on PNT1-A (24 h) amounted to 214 ± 9.3 µM; in the assay on PNT1-A (48 h), 167 ± 11.4 µM; with PNT1-A (72 h), 398 ± 10.4 µM.
